Results taken from US9605005B2, “Alkynyl alcohols and methods of use” (Genentech, Inc., priority 2013, dated 2017).
Where two headings read alike, the source gives them in different places.

What was measured:
[1] = system: REL-A (p65) nuclear translocation, HeLa cells; test: REL-A (p65) nuclear translocation assay in HeLa cells (classical NF-kB signaling, TNF-α stimulated); type: cell-based; conditions: Homo sapiens, 0.5 h
Method: (§1) Several assays were developed to profile the cellular activities of NIK inhibitors.
(§2) (2) A second set of cell assay are used to define the selectivity of NIK inhibitors toward inhibition of classical vs. non-classical NF-kB signaling and rely on quantification of the nuclear translocation of p52 (NF-kB2) and REL-A (p65) using high content cellular imaging. For the p52 (non-classical NF-kB signaling) nuclear translocation assay, HeLa cells are treated with different concentrations of compounds (0.2% DMSO final) in medium containing 10% fetal bovine serum and then stimulated with 100 ng/mL of an anti-lymphotoxin beta receptor antibody (R&D Systems) for 5 hours. In the REL-A nuclear translocation assay, HeLa cells are incubated with compounds (0.2% DMSO final) for 4.5 hours in medium containing 10% fetal bovine serum before stimulating them with 10 ng/mL tumor necrosis factor (TNF)-α (R&D Systems) for 30 minutes. Cells are fixed with 4% paraformaldehyde, permeabilized by adding 0.1% Triton X-100 in phosphate buffered saline, and then are incubated with either 2 ug/mL anti-p52 antibody (Millipore) or 400 ng/mL anti-REL-A (p65) antibody (Santa Cruz Biotechnology). Finally, the cells are incubated with an Alexa488-labeled secondary antibody (Invitrogen) and DRAQ5 DNA stain (Biostatus). Imaging is carried out using an Opera reader (Perkin Elmer) and data are analyzed with the aid of Acapella software (Perkin Elmer). The p52 or REL-Atranslocation into the nucleus is quantified by the ratio of the nuclear to cytoplasmic signal intensity. […] The compounds in listed in Table 1 have the corresponding inhibitory value (IC50 in micromolar) for NIK p52 Translocation Assay as set forth in Table 2.
(§3) The compounds in listed in Table 1 have the corresponding inhibitory values (IC50 in micromolar) for the Translocation Assays as set forth in Table 2.

[2] = system: p52 (NF-kB2) nuclear translocation, HeLa cells; test: p52 (NF-kB2) nuclear translocation assay in HeLa cells (non-classical NF-kB signaling, anti-lymphotoxin beta receptor antibody stimulated); type: cell-based; conditions: Homo sapiens, 100 ng/mL anti-lymphotoxin beta receptor antibody for 5 hours, read-out: p52 HeLa Transloc Assay (IC50)
Method: as §1, §2, §3

[3] = target: nuclear factor-kappa B (NF-kB)-inducing kinase (NIK) (Homo sapiens (Human), UniProt Q99558); test: NIK enzyme inhibition assay (Transcreener ADP, NIK ADP-FP); type: biochemical; conditions: purified NIK 0.5 nM, 10 μM ATP, fluorescence polarization; read-out: NIK ADP-FP (Ki μM)
Chain of nuclear factor-kappa B (NF-kB)-inducing kinase (NIK) (Q99558 whole entry): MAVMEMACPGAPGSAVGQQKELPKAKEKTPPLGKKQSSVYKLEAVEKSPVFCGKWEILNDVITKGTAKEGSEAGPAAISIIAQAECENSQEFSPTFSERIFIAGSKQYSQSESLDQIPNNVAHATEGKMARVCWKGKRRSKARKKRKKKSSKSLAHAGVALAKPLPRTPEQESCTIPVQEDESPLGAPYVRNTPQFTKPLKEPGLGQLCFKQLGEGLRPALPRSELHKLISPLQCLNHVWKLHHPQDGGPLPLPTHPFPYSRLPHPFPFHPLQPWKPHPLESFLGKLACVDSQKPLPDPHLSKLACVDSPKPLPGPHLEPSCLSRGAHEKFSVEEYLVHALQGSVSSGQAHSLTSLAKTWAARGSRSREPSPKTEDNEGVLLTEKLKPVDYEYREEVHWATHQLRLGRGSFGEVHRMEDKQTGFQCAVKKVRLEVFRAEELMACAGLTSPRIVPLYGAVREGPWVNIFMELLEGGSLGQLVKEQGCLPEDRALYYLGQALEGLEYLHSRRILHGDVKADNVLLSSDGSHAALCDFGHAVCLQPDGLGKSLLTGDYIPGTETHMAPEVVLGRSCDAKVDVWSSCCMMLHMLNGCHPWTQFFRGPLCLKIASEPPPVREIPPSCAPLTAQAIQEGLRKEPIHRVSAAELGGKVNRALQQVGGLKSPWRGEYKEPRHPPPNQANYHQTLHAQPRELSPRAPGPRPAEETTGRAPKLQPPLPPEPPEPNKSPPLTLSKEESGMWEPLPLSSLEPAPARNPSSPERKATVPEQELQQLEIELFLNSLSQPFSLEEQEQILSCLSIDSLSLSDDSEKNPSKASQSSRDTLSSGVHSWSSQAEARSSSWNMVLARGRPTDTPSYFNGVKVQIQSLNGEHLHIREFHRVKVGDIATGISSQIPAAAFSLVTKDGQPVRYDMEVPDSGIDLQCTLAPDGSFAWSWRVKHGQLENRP

[4] = HeLa cells, 10 ng/mL TNF-α for 30 minutes, read-out: REL-A HeLa Transloc Assay (IC50)

| Compound | IC50 [1, 4] [µM] | IC50 [2] [nM] | Ki [3] [nM] | IC50 ([1]; HeLa, read-out: REL-A HeLa Transloc Assay (IC50) [μM]) [µM] |
| --- | --- | --- | --- | --- |
| Cc1nnc([C@](C)(O)C#Cc2cccc(-c3nc(C(N)=O)n4ccc(Cl)cc34)c2)o1 [Compound 187, 7-chloro-1-[3-[(3R)-3-hydroxy-3-(5-methyl-1,3,4-oxadiazol-2-yl)but-1-ynyl]phenyl] imidazo[1,5-a]pyridine-3-carboxamide] | > 2 | 198 | 1.12 |  |
| CN1CC[C@@](O)(C#Cc2cccc(-n3nc(C(N)=O)c4cc(-c5cnn(CCO)c5)ccc43)c2)C1=O [Compound 113, 5-[1-(2-hydroxyethyl)pyrazol-4-yl]-1-[3-[2-[(3R)-3-hy-droxy-1-methyl-2-oxo-pyrroli-din-3-yl]ethynyl]phenyl] indazole-3-carboxamide] | 20 | 440 | 0.07 |  |
| CN1CC[C@@](O)(C#Cc2cccc(-n3nc(C(N)=O)c4cc(CC#N)ccc43)c2)C1=O [Compound 41, 5-(cyanomethyl)-1-[3-[2-[(3R)-3-hydroxy-1-methyl-2-oxo-pyrrolidin-3-yl]ethynyl]phenyl]indazole-3-carboxamide] | 20 | 52.5 | 0.32 |  |
| CN1CC[C@@](O)(C#Cc2cccc(-n3nc(C(N)=O)c4c3CCC[C@H]4O)c2)C1=O [Compound 2, (4R)-4-hydroxy-1-[3-[2-[(3R)-3-hydroxy-1-methyl-2-oxo-pyrrolidin-3-yl]ethynyl]phenyl]-4,5,6,7-tetrahydroinda-zole-3-carboxamide] | 20 | 273 | 1.07 |  |
| COc1cc2c(C(N)=O)nn(-c3cccc(C#C[C@]4(O)CCN(C)C4=O)c3)c2nn1 [Compound 173, 1-[3-[2-[(3R)-3-hydroxy-1-methyl-2-oxo-pyrrolidin-3-yl]ethynyl]phenyl]-5-methoxy-pyrazolo[3,4-c]pyridazine-3-carboxamide] | 2 | 176 | 0.55 |  |
| CCNc1nccc2c1c(C(N)=O)nn2-c1cccc(C#C[C@]2(O)CCN(C)C2=O)c1 [Compound 129, 4-(ethylamino)-1-[3-[2-[(3R)-3-hydroxy-1-methyl-2-oxo-pyrrolidin-3-yl]ethynyl]phenyl]pyrazolo[4,3-c]pyri-dine-3-carboxamide] | 4.47 | 8.12 | 0.05 |  |
| CN1CC[C@@](O)(C#Cc2cccc(-n3nc(C(N)=O)c4ncccc43)c2)C1=O [Compound 164, 1-[3-[2-[(3R)-3-hydroxy-1-methyl-2-oxo-pyrrolidin-3-yl]ethynyl]phenyl)pyrazolo [4,3-b]pyridine-3-carboxamide] | 20 | 208 | 1.54 |  |
| CN1CC[C@@](O)(C#Cc2cccc(-n3nc(C(N)=O)c4cc(-c5ccn(C)n5)ccc43)c2)C1=O [Compound 101, 1-[3-[2-[(3R)-3-hydroxy-1-methyl-2-oxo-pyrrolidin-3-yl]ethynyl]phenyl]-5-(1-meth-ylpyrazol-3-yl)indazole-3-carboxamide] | 6.32 | 31.2 | 0.06 |  |
| CN1CC[C@@](O)(C#Cc2cccc(-n3nc(C(N)=O)c4cc(OCCN5CCOCC5)ccc43)c2)C1=O [Compound 162, 1-[3-[2-[(3R)-3-hydroxy-1-methyl-2-oxo-pyrrolidin-3-yl]ethynyl]phenyl]-5-(2-morpho-linoethoxy)indazole-3-carboxamide] | 2 | 237 | 0.35 |  |
| CC(O)(C#Cc1cccc(-n2nc(C(N)=O)c3ccccc32)c1)c1nccs1 (single isomer, unassigned) [Compound 170] |  | 244 | 0.75 | 17.1 |
| Cc1nc2c(s1)c(C(N)=O)nn2-c1cccc(C#C[C@]2(O)CCN(C)C2=O)c1 [Compound 25, 1-[3-[2-[(3R)-3-hydroxy-1-methyl-2-oxo-pyrrolidin-3-yl]ethynyl]phenyl]-5-methyl-pyrazolo[3,4-d]thiazole-3-carboxamide] | 20 | 44.6 | 0.41 |  |
| Cc1nnc([C@](C)(O)C#Cc2cccc(-c3nc(C(N)=O)n4cc(Cl)ccc34)c2)o1 [Compound 185, 6-chloro-1-[3-[(3R)-3-hydroxy-3-(5-methyl-1,3,4-oxadiazol-2-yl)but-1-ynyl]phenyl]imidazo[1,5-a]pyridine-3-carboxamide] | > 2 | 1500 | 7.54 |  |
| CN1CC[C@@](O)(C#Cc2cccc(-n3nc(C(N)=O)c4c(NC5CC5)nccc43)c2)C1=O [Compound 130, 4-(cyclopropylamino)-1-[3-[2-[(3R)-3-hydroxy-1-meth-yl-2-oxo-pyrrolidin-3-yl]eth-ynyl]phenyl]pyrazolo[4,3-c]pyridine-3-carboxamide] | 2 | 53.1 | 0.11 |  |
| CN1CC[C@@](O)(C#Cc2cccc(-n3nc(C(N)=O)c4c3CCN(c3ncccn3)C4)c2)C1=O [Compound 121, 1-[3-[2-[(3R)-3-hydroxy-1-methyl-2-oxo-pyrrolidin-3-yl]ethynyl]phenyl]-5-pyrimi-din-2-yl-6,7-dihydro-4H-pyra-zolo[4,3-c]pyridine-3-carbox-amide] | 20 | 203 | 1.05 |  |
| CN1CC[C@@](O)(C#Cc2cc(-n3nc(C(N)=O)c4cccnc43)ccc2F)C1=O [Compound 31, 1-[4-fluoro-3-[2-[(3R)-3-hy-droxy-1-methyl-2-oxo-pyrroli-din-3-yl]ethynyl]phenyl] pyrazolo[3,4-b]pyridine-3-carboxamide] | 20 | 67.1 | 0.62 |  |
| CN1CC[C@@](O)(C#Cc2cc(F)cc(-n3nc(C(N)=O)c4cccnc43)c2)C1=O [Compound 18, 1-[3-fluoro-5-[2-[(3R)-3-hy-droxy-1-methyl-2-oxo-pyrroli-din-3-yl]ethynyl]phenyl] pyrazolo[3,4-b]pyridine-3-carboxamide] | 20 | 138 | 0.86 |  |
| CN1CC[C@@](O)(C#Cc2cccc(-n3nc(C(N)=O)c4c3CCOC4)c2)C1=O [Compound 70, 1-[3-[2-[(3R)-3-hydroxy-1-methyl-2-oxo-pyrrolidin-3-yl]ethynyl]phenyl]-6,7-dihy-dro-4H-pyrano[4,3-c]pyrazole-3-carboxamide] | 20 | 864 | 0.75 |  |
| CN1CC[C@@](O)(C#Cc2cccc(-n3nc(C(N)=O)c4c3CCN(c3ccncn3)C4)c2)C1=O [Compound 120, 1-[3-[2-[(3R)-3-hydroxy-1-methyl-2-oxo-pyrrolidin-3-yl]ethynyl]phenyl]-5-pyrimi-din-4-yl-6,7-dihydro-4H-pyra-zolo[4,5-c]pyridine-3-carbox-amide] | 20 | 1430 | 0.52 |  |
| CN1CC[C@@](O)(C#Cc2ccnc(-n3nc(C(N)=O)c4c3C[C@@]3(C)C[C@H]3C4)c2)C1=O [Compound 6, (4aS,5aR)-1-[4-[2-[(3R)-3-hydroxy-1-methyl-2-oxo-pyrroli-din-3-yl]ethynyl]-2-pyri-dyl]-5a-methyl-4,4a,5,6-tetrahydrocyclopropa[f]inda-zole-3-carboxamide] | 10 | 901 | 7.78 |  |
| CN1CC[C@@](O)(C#Cc2cccc(-c3nc(C(N)=O)n4ccc(Cl)cc34)c2)C1=O [Compound 94, 7-chloro-1-[3-[2-[(3R)-3-hy-droxy-1-methyl-2-oxo-pyrroli-din-3-yl]ethynyl]phenyl] imidazo[1,5-a]pyridine-3-carboxamide] | 6.32 | 7.26 | 0.05 |  |
| CN1CC[C@@](O)(C#Cc2cc(Cl)cc(-n3nc(C(N)=O)c4cccnc43)c2)C1=O [Compound 44, 1-[3-chloro-5-[2-[(3R)-3-hy-droxy-1-methyl-2-oxo-pyrroli-din-3-yl]ethynyl]phenyl] pyrazolo[3,4-b]pyridine-3-carboxamide] | 20 | 62 | 0.5 |  |
| CN1CC[C@@](O)(C#Cc2cccc(-n3nc(C(N)=O)c4cc(CO)ccc43)c2)C1=O [Compound 35, 5-(hydroxymethyl)-1-[3-[2-[(3R)-3-hydroxy-1-methyl-2-oxo-pyrrolidin-3-yl]ethynyl]phenyl]indazole-3-carbox-amide] | 20 | 737 | 1.48 |  |
| COc1ccc2c(c1)c(C(N)=O)nn2-c1cccc(C#C[C@]2(O)CCN(C)C2=O)c1 [Compound 14, 1-[3-[2-[(3R)-3-hydroxy-1-methyl-2-oxo-pyrrolidin-3-yl]ethynyl]phenyl]-5-methoxy-indazole-3-carboxamide] | 20 | 67.8 | 0.05 |  |
